We go through six compounds from patent publication US20140199714A1, “METHOD FOR DETECTING CANCER CELLS METASTASIZING INTO SENTINEL LYMPH NODE” (SHINSHU UNIVERSITY, priority 2008, published 2014).

For assay [1], the system named is F-actin in LECs derived from human collecting lymph vessel. The assay is described as follows: Staining of cytoskeletal protein F-actin in human LECs. The class given is cell-based. The settings on record: 10 ng/mL TNF-α; 1 ng/mL and 10 ng/mL IL-1β; 2 hrs. at 37° C.; vs negative control. As to the method: LECs derived from human collecting lymph vessel, which were transplanted into a culture system, were plated on glass slide, and repeatedly subcultured to confluence. Stimulating factors of 10 ng/mL of tumor necrosis factor-α (TNF-α) of Catalog No. T-0157 (available from SIGMA, US), 1 ng/mL and 10 ng/mL of interleukin-1β (IL-1β) of Catalog No. 200-01B (available from PeproTech, US) were respectively dissolved in EBM-2 containing 3% FBS of Catalog No. CC-3156 (available from Sankyo Junyaku Co., Ltd., Japan) and added onto the cells, and then the cells were incubated for 2 hrs. at 37° C. They were fixed with 3.7% formalin. They were washed with PBS solution, and then still stood in PBS solution containing 0.1% TRITON X-100 of Catalog No. X-100 (available from SIGMA, US) for 5 min. Additionally they were washed with PBS solution, and then phalloidin-FITC antibody of Catalog No. P-5282 (available from SIGMA, US) diluted 500 times with PBS solution containing 0.1% BSA was added thereto. They were still stood for 2 hrs. at room temperature. After they were washed with PBS solution, and mounted in MOBI GLOW MOUNTING MEDIUM. Also negative control was similarly prepared except for using no stimulating factor. […] The LECs of the negative control without the stimulating factor indicate obscure green fluorescence, and there were few expression of F-actin.

The next assay has as its system E-selectin on human LECs. The assay is described as follows: Immunohistochemical expression of E-selectin on cultured human LECs. In kind it is cell-based. The settings on record: 18 hrs.-stimulation with 10 ng/mL TNF-α or 100 ng/mL LPS. The method, then:
(§1) Using an indirect immunohistochemical technique, the inventors examined the effects of the supernatants of culture medium of two kinds of carcinoma cells, MDA-MB-231 and MCF-7, on the expression of adhesion molecules such as E-selectin, P-selectin, vascular cell adhesion molecule (VCAM)-1, and intercellular adhesion molecule (ICAM)-1 on the human LECs. The carcinoma cells were plated in DMEM/F12 with 10% FBS, which was replaced the following day with DMEM/F12 with 3% FBS, and then collected after overnight culture. The collected solution was centrifuged at 2,000 rpm for 5 min. at 4° C. To examine the effects of the supernatants on the expression of the adhesion molecules on the human LECs, 1 mL of each collected solution was added to starvation culture medium, EBM-2 with 3% FBS of the human LECs, and then stimulated for 48 hrs. on the cells. In some experiments, the supernatant solutions at different concentrations (1/100 or 1/10,000 dilution) were constructed with appropriate volumes of DMEM/F12 with 3% FBS.
(§2) Indirect immunohistochemical studies were performed on the cultured LECs seeded or glass slides coated with type I collagen, and then the cells were fixed with 3.3% formalin in phosphate-buffered saline solution (PBS), for 20 min. at room temperature. The cells were washed three times with PBS, and then incubated overnight at 4° C. with primary polyclonal human antisera to E-selectin/CD62E (dilution 10 μg/mL, available from R&D Systems, US), P-selectin/CD62P (dilution 10 μg/mL, available from R&D Systems, US), VCAM-1/CD106 (dilution 10 μg/mL, available from R&D Systems, US), and ICAM-1/CD54 (dilution 10 μg/mL, available from R&D Systems, US).
(§3) Before primary staining, the cultured cells were permeabilized with 0.1% TRITON-X. After washing three times in PBS, the cells were incubated for 1 hr. at room temperature with 1:100 diluted ALEXA FLUOR 488 donkey anti-mouse IgG (available from Invitrogen, US). The nuclei of cultured cells were counter-stained and mounted with PROLONG GOLD antifade reagent with 4′-6-diamidine-2-phenylindole (DAPI) (available from Molecular Probes, US), examined by a fluorescent microscope (Leica, Switzerland), and photographed.
(§4) Immunohistochemistry was performed on the cultured human LECs or the fresh-frozen SLNs isolated from the breast cancer patients. In brief, the cultured LECs were fixed with 10% formalin in the phosphate-buffered saline solution (PBS) at room temperature. The cells were incubated for 4 hrs. at room temperature with primary polyclonal human antisera platelet-endothelial cell adhesion molecule (PECAM)-1 (dilution 1:100, available from BD Biosciences, US), lymphatic vessel endothelial hyaluronan receptor (LYVE)-1 (dilution 1:50, available from RELIATech, Germany), PROX-1 (dilution 1:50, available from AngioBio, US), podoplanin (dilution 1:50, available from AngioBio, US), vascular endothelium growth factor receptor 3 (VEGF R3) (dilution 1:50, available from Santa Cruz, US), E-selectin/CD62E (dilution 1:50, available from R&D systems, US), P-selectin/CD62P (dilution 1:50, available from R&D systems, US), vascular cell adhesion molecule (VCAM)-1/CD106 (dilution 1:50, available from R&D systems, US), and intercellular adhesion molecule (ICAM)-1/CD54 (dilution 1:50, available from R&D systems, US). Before the staining, permeabilization of the cultured cells with 0.1% TRITON-X was performed. Then, the cells were stained using the following antibodies: ALEXA FLUOR 488 chicken anti-rabbit IgG or ALEXA FLUOR 488 donkey anti-mouse IgG (available from Invitrogen, US). The nuclei of the cultured cells were counter-stained and mounted with ProLong Gold antifade reagent with 4′-6-diamidine-2-phenylindole (DAPI) (available from Molecular Probes, US). The cultured cells were examined by a fluorescent microscope (available from Leica, Germany) and photographed. […]

In the next assay the test system is VCAM-1 on human LECs. The assay can be described thus: Immunohistochemical expression of VCAM-1 on cultured human LECs. In kind it is cell-based. The settings on record: 18 hrs.-stimulation with 10 ng/mL TNF-α or 100 ng/mL LPS. The method, then: as §1, §2, §3, §4
A further assay relates to P-selectin on human LECs. The assay is described as follows: Immunohistochemical expression of P-selectin on cultured human LECs. In kind it is cell-based. The settings on record: 18 hrs.-stimulation with 10 ng/mL TNF-α or 100 ng/mL LPS. The method, then:
as §1, §2
Before primary staining, the cultured cells were permeabilized with 0.1% TRITON-X. After washing three times in PBS, the cells were incubated for 1 hr. at room temperature with 1:100 diluted ALEXA FLUOR 488 donkey anti-mouse IgG (available from Invitrogen, US). […]

The test system of assay [2] is ICAM-1 on human LECs. The assay is described as follows: Immunohistochemical expression of ICAM-1 on cultured human LECs. In kind it is cell-based.
Assay [3] relates to attachment of carcinoma cells to human LECs. The assay can be described thus: In vitro human LEC attachment assay (ATP or MDA-MB-231 supernatant stimulation). The class given is cell-based. The settings on record: p<0.01, n=5. As to the method: The human LECs were plated to form a monolayer on type I collagen-coated 35 mm plates and incubated to confluence at 37° C. in 5% O2, 5% CO2, and 90% N2. The LECs were kept in serum-starved medium of EBM-2 with 3% FBS. Selected plates were treated with 10^−7M ATP or the supernatant of culture medium of MDA-MB-231 cells for 48 hrs. In some experiments, 10^−6M suramin was simultaneously added to the plates during 48 hrs. treatment with 10^−7M ATP or the culture medium supernatant of MDA-MB-231 cells.
In some experiments, the plates were also treated with anti-human-ICAM-1 antibody (available from R&D Systems, US) for 30 min after 48 hrs. treatment with the culture medium supernatant of MDA-MB-231 or 10^−7M ATP. Breast carcinoma cells stained with PKH26 fluorescent dye (available from SIGMA, US) were then plated at 5×10^4 cells per plate and incubated for 30 min. at 37° C. Unbound cells were removed by aspiration and the plates washed with DMEM/F12 three times. Attachment was quantitated by counting cells under ×100 magnification using a microscope (available from Leica, Switzerland).

In another assay the test system is prostate cancer cells. The settings on record: via P2 receptors; cited from earlier work.
The subject of assay [4] is ICAM-1 on human LECs. The assay can be described thus: Immunohistochemical expression of ICAM-1 on cultured human LECs. The settings on record: 48 hrs. simultaneous treatment with 10^−7 or 10^−6M antagonist; n=5. In kind it is cell-based. As to the method:
as §1
Indirect immunohistochemical studies were performed on the cultured LECs seeded or glass slides coated with type I collagen, and then the cells were fixed with 3.3% formalin in phosphate-buffered saline solution (PBS), for 20 min. at room temperature. […]
In some experiments, the effects of 10 ng/mL CCL2 on the immunohistochemical expression of ICAM-1 on the human LECs were also evaluated using the same procedure as that mentioned above after overnight neutralization of CCL2 in the starvation culture medium with a CCL2 specific antibody (1.0 μg/mL). […]
To quantitatively examine the immunohistochemical data concerning the expression of ICAM-1 on the human LECs, the high-resolution digital microphotographs were processed using the SCION IMAGE analysis program. […]

TNF-α: the “expression of F-actin (phalloidin-FITC fluorescence)” value in assay [1] is “increase of expression of F-actin”. Further, the “expression of E-selectin on human LECs (positive controls)” value in the assay with E-selectin on human LECs is “marked expression”. Besides, the “expression of VCAM-1 on human LECs (positive controls)” value with VCAM-1 on human LECs is recorded as “marked expression”. Also, the “expression of P-selectin on human LECs (positive controls)” value in the assay on P-selectin on human LECs was “marked expression”. In addition, in the assay on ICAM-1 on human LECs [2] (18 hrs.-stimulation with 10 ng/mL TNF-α or 100 ng/mL LPS), the “expression of ICAM-1 on human LECs (positive controls)” value is listed as “marked expression”.

Regarding “IL-1β: interleukin-1β, stimulating factor”, in assay [1], the “expression of F-actin (phalloidin-FITC fluorescence)” value is given as “increase of expression of F-actin”.

For the compound `Nc1ncnc2c1ncn2[C@@H]1O[C@H](COP(=O)(O)OP(=O)(O)OP(=O)(O)O)[C@@H](O)[C@H]1O` [ATP], the “in vitro attachment of carcinoma cells to human LECs” value in assay [3] (48 hrs. stimulation (10^−7M ATP or MDA-MB-231 supernatant) vs DMEM/F12 Ham negative control) was “significant increase”. The “inhibition of growth of prostate cancer cells in vitro” value in the assay on prostate cancer cells is listed as “up to 90%”. Further, in the assay on ICAM-1 on human LECs [2] (10^−8 or 10^−7M ATP for 48 hrs.), the “expression of ICAM-1 on human LECs” value is “marked expression”.

Consider `CCCn1c(=O)c2[nH]c(C3CCCC3)nc2n(CCC)c1=O` [DPCPX, 8-cyclopentyl-1,3-dipropylxanthine], for which the “effect on MDA-MB-231 supernatant-mediated expression of ICAM-1 on human LECs” value (“effect … on human LECs” for short) in the assay with ICAM-1 on human LECs [4] is reported as “no significant effect”.

For `Cc1ccc(C(=O)Nc2ccc(S(=O)(=O)O)c3cc(S(=O)(=O)O)cc(S(=O)(=O)O)c23)cc1NC(=O)c1cccc(NC(=O)Nc2cccc(C(=O)Nc3cc(C(=O)Nc4ccc(S(=O)(=O)O)c5cc(S(=O)(=O)O)cc(S(=O)(=O)O)c45)ccc3C)c2)c1` [suramin], the “effect on MDA-MB-231 supernatant-mediated increase of attachment of carcinoma cells to human LECs” value in assay [3] (48 hrs. simultaneous treatment with 10^−6M suramin) is “significant reduction”. Also, the “effect on ATP-mediated increased attachment of carcinoma cells to LECs” value in assay [3] (simultaneous treatment with 10^−6M suramin, 10^−7M ATP 48 hrs.) was “significantly reduced”. In the assay with ICAM-1 on human LECs [4], the “effect … on human LECs” value is on record as “significant reduction”. The “effect on ATP-mediated expression of ICAM-1 on LECs” value in the assay on ICAM-1 on human LECs [2] (simultaneous treatment with 10^−7M or 10^−6M suramin, 10^−7M ATP, p<0.01, n=5) was “significant reduction”.

On to `C#CCn1c(=O)c2c(ncn2C)n(C)c1=O` [DMPX, 3,7-dimethyl-1-propargyl xanthine], for which the “effect … on human LECs” value with ICAM-1 on human LECs [4] is recorded as “no significant effect”.
